In the supplement of paper PMC10307832:

Tests used:
Assay in all cases: relative viability (nuclei count vs DMSO), 5 days (fraction); higher = more cells survive
[1] = compound: N=C1NC(=O)/C(=C/c2ccc(O)cc2)S1 [Mirin] + CC(C)C[C@H](NC(=O)[C@H](Cc1ccccc1)NC(=O)c1cnccn1)B(O)O [Bortezomib] (partner 0.002 µM)
How it was run: (§1)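 Relative viability is defined as nuclei in treated wells over nuclei in vehicle wells. Duplicate plates were run and medians reported. Lung cancer cell lines in 1536-well plates were dosed by pin tool one day after seeding, with one drug or with a fixed anchor-drug dose plus five library-drug doses (not always all listed) in √10 steps, and nuclei were counted after 5 days.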

[2] = compound: CCn1c(-c2nonc2N)nc2cnc(Oc3cccc(NC(=O)c4ccc(OCCN5CCOCC5)cc4)c3)cc21 + O=C(CCCCCCC(=O)Nc1ccccc1)NO [Vorinostat] (partner 1 µM)
How it was run: as §1

[3] = compound: CCC1=CN=CN=C1N2CCN(CC2)CC3=NC4=C(N3)C=C(C=C4)C(F)(F)F + CCNC(=O)c1noc(-c2cc(C(C)C)c(O)cc2O)c1-c1ccc(CN2CCOCC2)cc1 [Luminespib] (partner 0.01 µM)
How it was run: as §1

[4] = compound: CCn1c(-c2nonc2N)nc2cnc(Oc3cccc(NC(=O)c4ccc(OCCN5CCOCC5)cc4)c3)cc21 + Nc1ncn([C@H]2C[C@H](O)[C@@H](CO)O2)c(=O)n1 [Decitabine] (partner 2 µM)
How it was run: as §1

Row | Cell Line | relative viability ([1]; first compound 0.25 µM) | relative viability ([1]; first compound 0.7906 µM) | relative viability ([1]; first compound 2.5 µM) | relative viability ([1]; first compound 7.906 µM) | relative viability ([1]; first compound 25 µM) | relative viability ([2]; first compound 0.04 µM) | relative viability ([2]; first compound 0.1265 µM) | relative viability ([2]; first compound 0.4 µM) | relative viability ([2]; first compound 1.265 µM) | relative viability ([2]; first compound 4 µM) | relative viability ([3]; first compound 0.04 µM) | relative viability ([3]; first compound 0.1265 µM) | relative viability ([3]; first compound 0.4 µM) | relative viability ([3]; first compound 1.265 µM) | relative viability ([3]; first compound 4 µM) | relative viability ([4]; first compound 0.04 µM) | relative viability ([4]; first compound 0.1265 µM) | relative viability ([4]; first compound 0.4 µM) | relative viability ([4]; first compound 1.265 µM) | relative viability ([4]; first compound 4 µM)
1 | 201T | 1.12 | 1.12 | 1.2 | 1.18 | 1.23 | 1.07 | 0.882 | 0.717 | 0.876 | 0.896 | 1.08 | 1.04 | 0.974 | 0.938 | 0.96 | 0.825 | 0.834 | 0.823 | 0.86 | 0.827
2 | A-427 | 0.97 | – | 1.01 | 1.03 | 1.02 | 0.812 | 0.733 | 0.587 | 0.243 | 0.284 | 0.874 | 0.881 | 0.908 | 0.75 | 0.722 | 0.542 | 0.517 | 0.475 | 0.278 | 0.291
3 | ABC-1 | 0.293 | 0.254 | 0.306 | 0.339 | 0.293 | 1.25 | 0.8 | 0.822 | 0.32 | 0.665 | 0.636 | – | – | 0.504 | 0.527 | 1.13 | 1.07 | 1.21 | 0.507 | 0.672
4 | BEN | 0.638 | 0.779 | 0.967 | 0.625 | 0.548 | 0.566 | 0.544 | 0.371 | 0.349 | 0.402 | 0.227 | 0.212 | 0.319 | 0.289 | 0.13 | 0.734 | 0.495 | 0.451 | 0.373 | 0.489
5 | COR-L23 | 1.1 | 1.08 | 1.03 | 1.06 | 0.968 | 0.508 | 0.309 | 0.225 | 0.13 | 0.113 | 0.717 | 0.629 | 0.641 | 0.654 | 0.545 | 0.469 | 0.401 | 0.215 | 0.186 | 0.166
6 | COR-L 105 | 0.866 | 0.759 | 0.903 | 0.992 | 0.769 | 0.941 | 0.785 | 0.762 | 0.419 | 0.412 | 0.8 | 1.08 | 0.77 | 0.724 | 0.732 | 0.669 | 0.512 | 0.596 | 0.432 | 0.377
7 | ChaGo-K-1 | 0.984 | – | 0.953 | 0.628 | 0.969 | 1 | 0.684 | 0.514 | 0.536 | 0.55 | 0.566 | 0.591 | 0.62 | 0.548 | 0.432 | 0.582 | 0.423 | 0.525 | 0.515 | 0.526
8 | EKVX | 1.05 | 0.979 | 1 | 1.03 | 1.04 | 0.786 | 0.365 | 0.757 | 0.513 | 0.647 | 0.846 | 0.83 | 0.882 | – | 0.919 | 0.397 | 0.381 | 0.331 | 0.35 | 0.34
9 | EMC-BAC-2 | 1.11 | 1.08 | 1.07 | 1.05 | 1.11 | 0.438 | 0.297 | 0.159 | 0.147 | 0.167 | 1.24 | 1.19 | 1.2 | – | 1.14 | 0.957 | 0.894 | 0.771 | 0.386 | 0.465
10 | EPLC-272H | 0.962 | – | 1.04 | 0.714 | 0.826 | 0.467 | 0.545 | 0.425 | 0.357 | 0.348 | 0.24 | 0.344 | 0.21 | 0.25 | 0.3 | 0.469 | 0.442 | 0.374 | 0.299 | 0.375
11 | H3255 | 0.778 | 0.725 | 0.837 | 0.698 | 0.769 | 0.92 | 0.743 | 0.686 | 0.618 | 0.568 | 0.785 | 0.853 | 0.72 | 0.619 | 0.859 | 0.774 | 0.594 | 0.63 | 0.403 | 0.518
12 | HARA | 1.09 | 1.11 | 1.17 | 1.1 | 1.17 | 0.524 | 0.551 | 0.538 | 0.577 | 0.645 | 0.668 | 0.561 | 0.682 | – | 0.555 | 0.598 | 0.665 | 0.684 | 0.283 | 0.206
13 | HCC-15 | 1.02 | 0.928 | 1.03 | 0.893 | 0.949 | 0.938 | 0.785 | 0.81 | 0.767 | 0.718 | 0.308 | 0.299 | 0.27 | 0.299 | 0.406 | 0.608 | 0.516 | 0.446 | 0.427 | 0.507
14 | HCC-44 | 0.876 | 0.955 | 0.846 | 0.856 | 1.13 | 1.13 | 1.18 | 1.14 | 1.07 | 1.09 | 1.02 | 1.01 | 1.03 | 0.88 | 1.07 | 0.868 | 1.06 | 0.738 | 0.728 | 0.429
15 | HCC-827 | 1.07 | 1.08 | 1.01 | 1.07 | 1.15 | 0.92 | 0.881 | 0.806 | 0.525 | 0.701 | 0.687 | 0.588 | 0.544 | – | 0.587 | 0.343 | 0.397 | 0.328 | 0.305 | 0.318
16 | HOP-62 | 0.727 | 0.867 | 0.725 | – | 0.836 | 0.936 | 0.769 | 0.521 | 0.382 | 0.394 | 1.11 | 0.991 | 0.895 | 0.954 | 0.816 | 0.226 | 0.215 | 0.23 | 0.211 | 0.202
17 | LC-2-ad | 0.996 | 1.07 | 1.03 | 0.907 | 1.03 | 0.728 | 0.618 | 0.258 | 0.29 | 0.277 | 0.952 | 1.01 | 1.01 | 0.873 | 0.939 | 0.769 | 0.755 | 0.818 | 0.642 | 0.615
18 | LCLC-97TM1 | 0.589 | – | 0.582 | 0.278 | 0.868 | 1.12 | 0.856 | – | 0.705 | 0.662 | 0.706 | 0.779 | 0.724 | 0.733 | 0.716 | 0.258 | 0.235 | – | 0.232 | 0.258
19 | LCLC-103H | 1.12 | 1.07 | 0.959 | 1.23 | 1.12 | 0.921 | 0.8 | 0.55 | 0.537 | 0.512 | 0.948 | 0.98 | 0.999 | 0.886 | 0.721 | 0.647 | 0.686 | 0.704 | 0.664 | 0.723
20 | LOU-NH91 | 0.417 | – | 0.47 | 0.455 | 0.503 | 1.06 | 0.824 | 0.661 | 0.529 | 0.548 | 0.341 | 0.403 | 0.32 | 0.323 | 0.313 | 0.794 | 0.698 | 0.65 | 0.561 | 0.533
21 | LU99A | 1.07 | 0.93 | 1.17 | 1 | 0.968 | 0.583 | 0.376 | 0.3 | 0.427 | 0.384 | 0.247 | 0.227 | 0.309 | 0.22 | 0.229 | 1.03 | 0.994 | 0.929 | 1.02 | 0.844
22 | LXF-289 | 0.99 | 1.08 | 1.01 | 1.02 | 1.11 | 0.862 | 0.886 | 0.79 | 0.777 | 0.604 | 0.701 | 0.64 | 0.685 | 0.63 | 0.676 | 0.359 | 0.403 | 0.353 | 0.384 | 0.318
23 | NCI-H23 | 1.3 | – | 1.15 | 0.842 | 0.817 | 0.735 | 0.526 | 0.3 | 0.531 | 0.55 | 0.223 | 0.219 | 0.21 | 0.191 | 0.213 | 0.362 | 0.342 | 0.334 | 0.234 | 0.263
24 | NCI-H322M | 1.22 | 1.29 | 1.41 | 1.42 | 1.24 | 1.26 | 1.31 | 0.856 | 0.554 | 0.675 | 0.988 | 0.846 | 0.808 | 0.805 | 0.918 | 0.585 | 0.63 | 0.824 | 0.767 | 0.648
25 | NCI-H441 | 0.387 | 0.645 | 0.449 | 0.314 | 0.409 | 1.04 | 0.705 | 0.87 | 0.502 | 0.47 | 0.387 | 0.345 | 0.315 | 0.358 | 0.396 | 0.307 | 0.183 | 0.227 | 0.265 | 0.261
26 | NCI-H460 | 1.22 | 1.2 | 1.21 | 1.12 | 1.15 | 0.952 | 0.729 | 0.471 | 0.189 | 0.107 | 0.0311 | 0.0367 | 0.0386 | 0.0407 | 0.0253 | 0.515 | 0.574 | 0.383 | 0.245 | 0.148
27 | NCI-H520 | 0.503 | 0.13 | 0.632 | 0.355 | 0.358 | 0.957 | 0.856 | 0.774 | 0.478 | 0.297 | 0.243 | 0.256 | 0.264 | – | 0.199 | 0.611 | 0.524 | 0.468 | 0.347 | 0.37
